In patent US20070293399A1, “SUBSTITUTED DIAMINO-1,3,5-TRIAZINES, PROCESSES FOR THEIR PREPARATION AND THEIR USE AS HERBICIDES AND CROP GROWTH REGULATORS” (Bayer CropScience AG, priority 2006, published 2007):

Legend:
[1] = tested on: Stellaria media, Lolium multiflorum, Amaranthus retroflexus, Sinapis alba, Avena sativa and Setaria viridis; test: Pre-emergence herbicidal action (greenhouse pot test); format: in vivo; settings: application rate of 1 kg or less of active substance per hectare; scored visually after 3 to 4 weeks in comparison to untreated controls
From the text: Seeds or rhizome pieces of mono- and dicotyledonous weed plants were placed in sandy loam in plastic pots and covered with soil. The inventive compounds, which have been formulated in the form of wettable powders or emulsion concentrates, were then applied to the surface of the covering soil as an aqueous suspension or emulsion in different dosages with an application rate of from 600 to 800 l/ha of water (converted).

[2] = tested on: Sinapis alba, Echinochloa crus-galli, Lolium multiflorum, Stellaria media, Cyperus iria, Amaranthus retroflexus, Setaria viridis, Avena sativa, Lamium …; test: Post-emergence herbicidal action (greenhouse pot test); format: in vivo; settings: application rate of 1 kg and less of active substance per hectare; treated at three-leaf stage; scored visually after approx. 3 to 4 weeks in comparison to untreated controls
Procedure: Seeds or rhizome pieces of mono- and dicotyledonous weeds were placed in sandy loam in plastic pots, covered with soil and grown in a greenhouse under good growth conditions. Three weeks after the sowing, the test plants were treated at the three-leaf stage. The inventive compounds formulated as spray powders or as emulsion concentrates were sprayed onto the green plant parts in various dosages with an application rate of from 600 to 800 l/ha of water (converted). After the test plants had been left to stand in the greenhouse under optimal growth conditions for approx. 3 to 4 weeks, the action of the preparations was scored visually in comparison to untreated controls. The inventive compositions also had good post-emergence herbicidal activity against a wide spectrum of economically important gramineous and broadleaf weeds.

SMILES | herbicidal action against harmful plants in the pre-emergence method [1] | herbicidal action against harmful plants in the post-emergence method [2]
CC(=O)Nc1ncnc(NC2c3cc(F)ccc3CC2C)n1 (racemic) [Compound 1.1] | very good herbicidal action | very good herbicidal action
CC1Cc2ccc(F)cc2C1Nc1ncnc(NC(=O)C(Cl)(Cl)Cl)n1 (racemic) [Compound 1.2] | very good herbicidal action | very good herbicidal action
CC1Cc2ccc(F)cc2C1Nc1ncnc(NC(=O)C(F)(F)F)n1 (racemic) [Compound 1.3] | very good herbicidal action | very good herbicidal action
CC1Cc2ccc(F)cc2C1Nc1ncnc(NC(=O)CCl)n1 (racemic) [Compound 1.4] | very good herbicidal action | very good herbicidal action
CCC(=O)Nc1ncnc(NC2c3cc(F)ccc3CC2C)n1 (racemic) [Compound 1.5] | very good herbicidal action | very good herbicidal action
COC(=O)Nc1nc(CF)nc(NC2c3cc(F)ccc3CC2C)n1 (racemic) [Compound 1.11] | very good herbicidal action | very good herbicidal action
CCC(=O)Nc1nc(CF)nc(NC2c3cc(F)ccc3CC2C)n1 (racemic) [Compound 1.12] | very good herbicidal action | very good herbicidal action
CC1Cc2ccc(F)cc2C1Nc1nc(CF)nc(NC(=O)C(F)(F)F)n1 (racemic) [Compound 1.13] | very good herbicidal action | very good herbicidal action
CC1Cc2ccc(F)cc2C1Nc1nc(CF)nc(NC(=O)C(Cl)(Cl)Cl)n1 (racemic) [Compound 1.14] | very good herbicidal action | very good herbicidal action
CC(=O)Nc1nc(NC2CCOc3c(C)cc(F)cc32)nc(C2CC2)n1 (racemic) [Compound 1.31] | very good herbicidal action | very good herbicidal action
COCc1nc(NC(C)=O)nc(NC2CCc3ccccc32)n1 (racemic) [Compound 1.32] | very good herbicidal action | very good herbicidal action
CC(=O)Nc1nc(NC2CCOc3c(C)cc(F)cc32)nc(C(C)Cc2ccc(F)cc2)n1 (racemic) [Compound 1.33] | very good herbicidal action | very good herbicidal action
CCC(=O)Nc1nc(NC2CCOc3c(C)cc(F)cc32)nc(C(C)Cc2ccc(F)cc2)n1 (racemic) [Compound 1.38] | very good herbicidal action | very good herbicidal action
COCc1nc(NC(C)=O)nc(NC2CCCc3c(C)cc(C)cc32)n1 (racemic) [Compound 1.39] | very good herbicidal action | very good herbicidal action
CC(=O)Nc1ncnc(NC2c3cccc(C)c3CC2C)n1 (racemic) [Compound 1.46] | very good herbicidal action | very good herbicidal action
CC(=O)Nc1ncnc(NC2CCOc3ccc(C)cc32)n1 (racemic) [Compound 1.47] | very good herbicidal action | very good herbicidal action
Cc1ccc2c(c1)C(Nc1nc(NC(=O)C(Cl)(Cl)Cl)nc(C(C)F)n1)CCO2 (racemic) [Compound 1.51] | very good herbicidal action | very good herbicidal action

SMILES | herbicidal action against harmful plants in the pre-emergence method [1] | herbicidal action against harmful plants in the post-emergence method [2]
Cc1ccc2c(c1C)OCCC2Nc1nc(NC(=O)C2CC2)nc(C2CC2)n1 (racemic) [Compound 1.70] | very good herbicidal action | very good herbicidal action
CC(=O)Nc1ncnc(N[C@@H]2CCCc3ccccc32)n1 [Compound 2.1, N1-{4-[(1R)-1,2,3,4-Tetrahydro-1-naphthylamino]-1,3,5-triazin-2-yl}acetamide] | very good herbicidal action | very good herbicidal action
CCC(=O)Nc1ncnc(N[C@@H]2CCCc3ccccc32)n1 [Compound 2.2] | very good herbicidal action | very good herbicidal action
CC(=O)Nc1ncnc(N[C@H]2c3cc(C)ccc3C[C@@H]2C)n1 [Compound 2.9] | very good herbicidal action | very good herbicidal action
Cc1ccc2c(c1)[C@H](Nc1ncnc(NC(=O)C(F)(F)F)n1)[C@@H](C)C2 [Compound 2.12, N-(4-{[(1R,2S)-2,6-Dimethyl-2,3-dihydro-1H-inden-1-yl]-amino}-1,3,5-triazin-2-yl)-2,2,2-trifluoroacetamide] | very good herbicidal action | very good herbicidal action
CC(=O)Nc1nc(N[C@H]2c3cc(C)ccc3C[C@@H]2C)nc([C@@H](C)F)n1 [Compound 2.13] | very good herbicidal action | very good herbicidal action
CCC(=O)Nc1nc(N[C@H]2c3cc(C)ccc3C[C@@H]2C)nc([C@@H](C)F)n1 [Compound 2.14] | very good herbicidal action | very good herbicidal action
Cc1ccc2c(c1)[C@H](Nc1nc(NC(=O)C(F)(F)F)nc([C@@H](C)F)n1)[C@@H](C)C2 [Compound 2.26] | very good herbicidal action | very good herbicidal action
CC(=O)Nc1nc(N[C@@H]2CCCc3ccccc32)nc([C@@H](C)F)n1 [Compound 2.31] | very good herbicidal action | very good herbicidal action
C[C@@H](F)c1nc(NC(=O)C(F)(F)F)nc(N[C@@H]2CCCc3ccccc32)n1 [Compound 2.32] | very good herbicidal action | very good herbicidal action
CC(=O)Nc1nc(C)nc(N[C@H]2c3cc(C)ccc3C[C@@H]2C)n1 [Compound 2.33] | very good herbicidal action | very good herbicidal action
C[C@@H](F)c1nc(NCCC#N)nc(N[C@@H]2CCCc3ccccc32)n1 [Compound 2.38, 3-({4-[(1R)-1-Fluoroethyl]-6-[(1R)-1,2,3,4-tetrahydronaphth-1-ylamino]-1,3,5-triazin-2-yl}amino)propanenitrile] | very good herbicidal action | very good herbicidal action
C[C@@H](F)c1nc(N[C@@H]2CCCc3ccccc32)nc(N(CCC#N)CCC#N)n1 [Compound 2.39, 3,3′-({4-[(1R)-1-Fluoroethyl]-6-[(1R)-1,2,3,4-tetrahydronaphth-1-ylamino]-1,3,5-triazin-2-yl}imino)dipropanenitrile] | very good herbicidal action | very good herbicidal action
Cc1ccc2c(c1)[C@H](Nc1ncnc(NC(=O)NC(C)(C)C)n1)[C@@H](C)C2 [Compound 2.43, N-(Tert-butyl)-N′-(4-{[(1R,2S)-2,6-dimethyl-2,3-dihydro-1H-inden-1-yl]amino}-1,3,5triazin-2-yl)urea] | very good herbicidal action | very good herbicidal action
Cc1ccc(NC(=O)Nc2nc(N[C@@H]3CCCc4ccccc43)nc([C@@H](C)F)n2)cc1 [Compound 2.59] | very good herbicidal action | very good herbicidal action
Cc1ccc(NC(=O)Nc2ncnc(NC3c4cc(C)ccc4CC3C)n2)cc1 (centres unmarked) [Compound 2.60] | very good herbicidal action | very good herbicidal action
Cc1ccc2c(c1)C(Nc1nc(NC(=O)C3CC3)nc(C(C)F)n1)C(C)C2 (centres unmarked) [Compound 2.67] | very good herbicidal action | very good herbicidal action
